Reference: US6087334A, “Anti-diabetic peptides” (Amylin Pharmaceuticals, Inc., priority 1998, dated 2000)
Where a SMILES comes first, the peptide text is derived from it. Bridges are numbered along the chain shown (N, C = ends).

Tested on: gastric emptying in conscious rats
Conditions: rat, in vivo
Excerpt: Peptide compounds of the present invention may be evaluated for amylin agonist activity using the methods of measuring the rate of gastric emptying disclosed in, for example, Young et al., Diabetologia, 38(6):642-648 (1995). In a phenol red method, which is described in Example D below, conscious rats receive by gavage an a caloric gel containing methyl cellulose and a phenol red indicator. Twenty minutes after gavage, animals are anesthetized using halothane, the stomach exposed and clamped at the pyloric and lower esophageal sphincters, removed and opened into an alkaline solution. Stomach content may be derived from the intensity of the phenol red in the alkaline solution, measured by absorbance at a wavelength of 560 nm. In a tritiated glucose method, conscious rats are gavaged with tritiated glucose in water. The rats are gently restrained by the tail, the tip of which is anesthetized using lidocaine. Tritium in the plasma separated from tail blood is collected at various timepoints and detected in a beta counter. Test compounds are normally administered about one minute before gavage.
Phenol Red Gastric Emptying Assay:
Gastric emptying was measured using a modification (Plourde et al., Life Sci. 53:857-862 (1993)) of the original method of Scarpignato et al. (Arch. Int. Pharmacodyn. Ther. 246:286-295 (1980)). Conscious rats received by gavage. 1.5 mL of an a caloric gel containing 1.5% methyl cellulose (M-0262, Sigma Chemical Co., St. Louis, Mo.) and 0.05% phenol red indicator. Twenty minutes after gavage, rats were anesthetized using 5% halothane, the stomach exposed and clamped at the pyloric and lower esophageal sphincters using artery forceps, removed and opened into an alkaline solution which was made up to a fixed volume. Stomach content was derived from the intensity of the phenol red in the alkaline solution, measured by absorbance at a wavelength of 560 nm. […] In other experiments, particulate gastric contents were centrifuged to clear the solution for absorbance measurements. Where the diluted gastric contents remained turbid, the spectroscopic absorbance due to phenol red was derived as the difference between that present in alkaline versus acidified dilutent.
In separate experiments on 7 rats, the stomach and small intestine were both excised and opened into an alkaline solution. […] Percent gastric emptying contents remaining=(absorbance at 20 min)/(absorbance at 0 min). For those compounds for which ED50 data is presented, dose response curves for gastric emptying were fitted to a 4-parameter logistic model using a least-squares iterative routine (ALLFIT, v2.7, NIH, Bethesda, Md.) to derive ED50 s. Because ED50 is log-normally distributed, it is expressed ± standard error of the logarithm. Pairwise comparisons were performed using one-way analysis of variance and the Student-Newman-Keuls multiple comparisons test (Instat v2.0, GraphPad Software, San Diego, Calif.) using P<0.05 as the level of significance.
As a reference point for dose response studies, rat amylin (Bachem, Torrance, Calif.) dissolved in 0.15M saline, was administered as a 0.1 mL subcutaneous bolus in doses of 0, 0.01, 0.1, 1, 10 or 100 μg 5 minutes before gavage in Harlan Sprague Dawley (non-diabetic) rats fasted 20 hours and diabetic BB rats fasted 6 hours.

Structure (SMILES)	Example D ED50 [µg]
CC(C)C[C@H](NC(=O)[C@H](CCCNC(=N)N)NC(=O)[C@H](C)NC(=O)[C@@H](NC(=O)[C@H](C)NC(=O)[C@@H]1CSSC[C@H](NC(=O)[C@@H](N)CCCCN)C(=O)N[C@@H](CC(N)=O)C(=O)N[C@@H]([C@@H](C)O)C(=O)N[C@@H](C)C(=O)N[C@@H]([C@@H](C)O)C(=O)N1)[C@@H](C)O)C(=O)N[C@@H](C)C(=O)N[C@@H](C)C(=O)N[C@@H](Cc1ccccc1)C(=O)N[C@@H](CC(C)C)C(=O)N[C@@H](C)C(=O)N[C@@H](CCCNC(=N)N)C(=O)N[C@@H](CO)C(=O)N[C@@H](CO)C(=O)NCC(=O)N[C@@H](Cc1ccc(O)cc1)C(N)=O [Example 1] (H-KCNTATCATARLAAFLARSSGY-NH2; disulfide 2-7)	0.26
CC(C)C[C@H](NC(=O)[C@H](CCCNC(=N)N)NC(=O)[C@H](C)NC(=O)[C@@H](NC(=O)[C@H](C)NC(=O)[C@@H]1CSSC[C@H](N)C(=O)N[C@@H](CC(N)=O)C(=O)N[C@@H]([C@@H](C)O)C(=O)N[C@@H](C)C(=O)N[C@@H]([C@@H](C)O)C(=O)N1)[C@@H](C)O)C(=O)N[C@@H](C)C(=O)N[C@@H](C)C(=O)N[C@@H](Cc1ccccc1)C(=O)N[C@@H](CC(C)C)C(=O)N[C@@H](C)C(=O)N[C@@H](CCCNC(=N)N)C(=O)N[C@@H](CO)C(N)=O [Example 3] (H-CNTATCATARLAAFLARS-NH2; disulfide 1-6)	0.45
CC(C)C[C@H](NC(=O)[C@H](CCCNC(=N)N)NC(=O)[C@H](C)NC(=O)[C@@H](NC(=O)[C@H](C)NC(=O)[C@@H]1CSSC[C@H](NC(=O)[C@@H](N)CCCCN)C(=O)N[C@@H](CC(N)=O)C(=O)N[C@@H]([C@@H](C)O)C(=O)N[C@@H](C)C(=O)N[C@@H]([C@@H](C)O)C(=O)N1)[C@@H](C)O)C(=O)N[C@@H](C)C(=O)N[C@@H](CC(N)=O)C(=O)N[C@@H](Cc1ccccc1)C(=O)N[C@@H](CC(C)C)C(=O)N[C@H](C(=O)N[C@@H](CCCNC(=N)N)C(=O)N[C@@H](CO)C(=O)N[C@@H](CO)C(=O)NCC(=O)N[C@@H](Cc1ccc(O)cc1)C(N)=O)C(C)C [Example 5] (H-KCNTATCATARLANFLVRSSGY-NH2; disulfide 2-7)	9.3
CC(C)C[C@H](NC(=O)[C@H](CCCNC(=N)N)NC(=O)[C@H](C)NC(=O)[C@@H](NC(=O)[C@H](C)NC(=O)[C@H](C)NC(=O)[C@@H](NC(=O)[C@H](CO)NC(=O)[C@@H](N)CC(C)C)[C@@H](C)O)[C@@H](C)O)C(=O)N[C@@H](C)C(=O)N[C@@H](C)C(=O)N[C@@H](Cc1ccccc1)C(=O)N[C@@H](CC(C)C)C(=O)N[C@@H](C)C(=O)N[C@@H](CCCNC(=N)N)C(=O)N[C@@H](CO)C(N)=O [Example 6] (H-LSTAATARLAAFLARS-NH2)	1.34
